Reference: the supplement of paper PMC10307832

Key:
Experiment in all cases: relative viability (nuclei count vs DMSO), 5 days (fraction); higher = more cells survive
[1] = compound: COC1=CC=C(C=C1)CN2C=CC3=C2C=C(C=C3)C(=O)NO
Outline: (§1)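 Only plates meeting two conditions passed: control CV below 25% and at least one doubling. Lung cancer cell lines, kept overnight at 37 °C in 1536-well plates, were pinned with five library-drug doses (not always all listed) √10 apart on vehicle-anchored plates and grown 5 days without medium change. A one-step fix, permeabilisation and Hoechst stain preceded 4× imaging and MetaXpress nuclear counting. Viability equals treated-well nuclei divided by vehicle-well nuclei, as the median over plates.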

Veliparib = compound: C[C@]1(c2nc3c(C(N)=O)cccc3[nH]2)CCCN1 [Veliparib]
Outline: as §1

[2] = compound: COC1=CC=C(C=C1)CN2C=CC3=C2C=C(C=C3)C(=O)NO + Cc1nc(NC(=O)N2CCC[C@H]2C(N)=O)sc1-c1ccnc(C(C)(C)C(F)(F)F)c1 [Alpelisib] (partner 2 µM)
Outline: (§2)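 Medians of duplicate plates are given as relative viability. That measure is the nuclei count in treated wells divided by the count in vehicle wells. Counts were taken on 4× images of lung cancer cell lines in 1536-well plates, 5 days after pin-tool dosing the day after seeding with one drug alone or a fixed anchor-drug dose plus five library-drug doses (not always all listed) in √10 steps.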

Veliparib + Bortezomib = compound: C[C@]1(c2nc3c(C(N)=O)cccc3[nH]2)CCCN1 [Veliparib] + CC(C)C[C@H](NC(=O)[C@H](Cc1ccccc1)NC(=O)c1cnccn1)B(O)O [Bortezomib] (partner 0.002 µM)
Outline: as §2

Cell Line | relative viability ([1]; 0.08 µM) | relative viability ([1]; 0.253 µM) | relative viability ([1]; 0.8 µM) | relative viability ([1]; 2.53 µM) | relative viability ([1]; 8 µM) | relative viability (Veliparib; 0.02 µM) | relative viability (Veliparib; 0.06325 µM) | relative viability (Veliparib; 0.2 µM) | relative viability (Veliparib; 0.6325 µM) | relative viability (Veliparib; 2 µM) | relative viability ([2]; first compound 0.08 µM) | relative viability ([2]; first compound 0.253 µM) | relative viability ([2]; first compound 0.8 µM) | relative viability ([2]; first compound 2.53 µM) | relative viability ([2]; first compound 8 µM) | relative viability (Veliparib + Bortezomib; first compound 0.02 µM) | relative viability (Veliparib + Bortezomib; first compound 0.06325 µM) | relative viability (Veliparib + Bortezomib; first compound 0.2 µM) | relative viability (Veliparib + Bortezomib; first compound 0.6325 µM) | relative viability (Veliparib + Bortezomib; first compound 2 µM)
NCI-H2405 | 0.908 | 0.934 | 1 | 1.06 | 0.913 | 0.973 | 0.89 | 1.01 | 1 | 0.691 | 0.474 | 0.784 | 0.804 | 0.797 | 0.675 | 0.96 | 0.858 | 0.978 | 0.988 | 0.93
ABC-1 |  | 0.941 | 0.845 | 0.94 | 0.703 |  | 0.842 | 0.925 | 0.841 | 0.958 |  | 1.37 | 0.928 | 1 | 1.17 |  | 0.266 | 0.257 | 0.259 | 0.304
NCI-H2126 | 0.99 | 1.03 | 1.03 | 1.02 | 0.942 | 0.986 | 0.926 | 0.984 | 0.985 | 0.999 | 0.738 | 0.798 | 0.744 | 0.804 | 0.836 | 1.03 | 1.07 | 1.18 | 1.14 | 1.06
NCI-H838 |  | 1.01 | 0.964 | 0.98 | 0.871 | 1.05 | 0.909 | 0.974 | 0.9 | 1.02 |  | 0.981 | 0.91 | 1.03 | 0.874 | 0.905 | 0.79 | 0.926 | 0.686 | 0.848
EPLC-272H | 0.753 | 0.871 | 1 | 0.974 | 0.766 |  | 0.855 | 1.02 | 1.01 | 0.938 | 0.875 | 0.976 | 0.985 | 0.864 | 0.875 |  | 0.84 | 0.964 | 0.85 | 0.878
NCI-H1703 | 0.699 | 1.07 | 0.959 | 0.956 | 0.904 | 0.816 | 0.839 | 0.852 | 0.878 | 1.11 | 0.337 | 0.324 | 0.328 | 0.344 | 0.381 | 0.366 | 0.308 | 0.408 | 0.354 | 0.426
NCI-H1975 | 0.862 | 0.976 | 0.923 | 0.979 | 0.872 | 1.03 | 0.876 | 0.903 | 0.884 | 0.861 | 0.699 | 0.711 | 0.644 | 0.592 | 0.547 | 0.394 | 0.465 | 0.429 | 0.412 | 0.424
NCI-H3122 | 0.971 | 0.984 | 0.954 | 0.989 | 0.955 | 1 | 1.01 | 0.974 | 0.957 | 1 | 0.613 | 0.88 | 0.828 | 0.87 | 0.701 | 1.01 | 0.99 | 0.968 | 0.998 | 0.938
PC-14 | 0.84 | 0.939 | 0.998 | 1.01 | 0.904 | 0.805 | 0.936 | 0.974 | 0.955 | 0.993 | 0.883 | 0.856 | 0.96 | 1.02 | 0.985 | 0.865 | 0.807 | 0.795 | 0.714 | 0.757
NCI-H1563 | 0.843 | 1.09 | 0.955 | 0.968 | 0.908 | 0.851 | 0.953 | 0.956 | 0.966 | 1.05 | 0.798 | 0.947 | 0.946 | 0.964 | 0.839 | 0.645 | 0.803 | 0.859 | 0.792 | 0.799
COR-L 105 | 0.679 | 0.928 | 0.936 | 0.799 | 0.565 | 0.843 | 0.794 | 0.895 | 0.835 | 1.08 |  | 0.93 | 1.04 | 0.942 | 0.929 | 0.735 | 0.633 | 0.548 | 0.783 | 0.83
LU99A |  | 0.932 | 1.11 | 0.916 | 0.932 | 0.984 | 0.902 | 0.771 | 0.863 | 0.994 |  | 0.552 | 0.624 | 0.605 | 0.479 | 1.16 | 1.1 | 0.833 | 1.06 | 1.29
HCC-78 | 0.803 | 0.876 | 1.01 | 1.02 | 0.917 | 0.987 | 0.829 | 0.949 | 0.828 | 0.888 |  | 0.359 | 0.395 | 0.35 | 0.305 | 0.537 | 0.482 | 0.639 | 0.428 | 0.474
NCI-H1792 | 0.952 | 0.883 | 0.99 | 0.766 | 0.795 | 0.825 | 0.694 | 0.943 | 0.966 | 0.718 | 0.663 | 0.765 | 0.744 | 0.741 | 0.617 | 0.924 | 0.858 | 0.981 | 0.916 | 0.897
NCI-H1651 | 0.918 | 0.963 | 0.969 | 0.91 | 0.926 | 0.977 | 0.906 | 0.96 | 0.882 | 0.915 | 0.993 | 1.06 | 0.964 | 0.789 | 0.723 | 0.924 | 0.883 | 0.908 | 0.918 | 0.876
LOU-NH91 | 0.717 | 0.95 | 1 | 0.991 | 0.944 | 0.941 | 0.893 | 1.01 | 0.931 | 0.992 | 0.635 | 0.71 | 0.769 | 0.731 | 0.69 | 0.486 | 0.387 | 0.511 | 0.464 | 0.476
IA-LM | 0.91 | 0.949 | 1.03 | 1.08 | 0.868 | 0.918 | 0.831 | 0.952 | 0.896 | 0.886 | 0.609 | 0.743 | 0.732 | 0.852 | 0.776 | 0.831 | 0.748 | 0.794 | 0.83 | 0.813
COR-L23 | 0.874 | 0.992 | 1 | 1.01 | 0.933 | 0.998 | 0.872 | 0.924 | 0.952 | 1.03 | 0.493 | 0.897 | 0.793 | 0.892 | 0.551 | 0.92 | 0.991 | 1.01 | 0.966 | 0.967
NCI-H650 | 0.903 | 0.834 | 0.888 | 0.949 | 0.891 | 0.765 | 0.799 | 0.834 | 0.783 | 0.731 | 1.01 | 1.16 | 1.05 | 1.03 | 0.892 | 0.635 | 0.675 | 0.64 | 0.744 | 0.565
201T | 1.02 | 0.987 | 1.05 | 0.993 | 0.942 | 0.901 | 0.926 | 0.959 | 1.11 | 1.01 | 0.948 | 1.08 | 1.07 | 1.03 | 1 | 1.09 | 1.07 | 1.06 | 1.18 | 1.08
A-427 |  | 0.98 | 1.01 | 0.952 | 0.806 | 0.781 | 0.995 | 0.943 | 0.939 | 0.841 |  | 1.15 | 1.13 | 1.15 | 1.06 | 0.969 | 0.936 | 0.929 | 0.99 | 0.959
LCLC-97TM1 |  | 1.03 | 1.02 | 0.942 | 0.887 | 0.903 | 0.925 | 0.897 | 0.912 | 0.993 |  | 0.242 | 0.242 | 0.255 | 0.233 |  | 0.269 | 0.554 | 1.12 | 0.834
HOP-62 | 0.865 | 1.01 | 0.992 | 1.03 | 0.958 | 0.934 | 0.909 | 0.963 | 0.976 | 1.02 | 0.71 | 0.996 | 0.985 | 0.932 | 0.947 | 0.729 | 1.16 | 0.811 | 0.733 | 0.951
NCI-H1915 | 0.888 | 0.992 | 1.02 | 0.982 | 0.881 | 0.949 | 0.881 | 0.786 | 0.9 | 0.928 | 1.02 | 1.07 | 1.06 | 1.08 | 1.02 | 0.939 | 1.02 | 0.842 | 0.915 | 0.755
CAL-12T | 1.02 | 0.889 | 1.04 | 1.05 | 0.891 | 0.918 | 0.926 | 0.981 | 0.9 | 1.02 | 1.22 | 1.31 | 1.19 | 1.19 | 1.24 | 0.862 | 0.72 | 0.952 | 1.18 | 0.971
NCI-H1437 | 0.912 | 0.978 | 1.05 | 1.06 | 1.05 | 0.815 | 0.958 | 0.971 | 0.972 | 0.963 | 0.827 | 1.04 | 0.958 | 0.953 | 1.01 | 0.424 | 0.496 | 0.472 | 0.47 | 0.474
UMC-11 | 0.711 | 0.965 | 1.02 | 0.907 | 0.964 | 1.09 | 0.997 | 0.964 | 0.926 | 0.983 | 0.526 | 0.986 | 0.92 | 1.12 | 1.05 | 0.592 | 0.727 | 0.668 | 0.685 | 0.667
HCC-44 | 0.916 | 0.923 | 1.03 | 1.05 | 1 | 0.971 | 0.798 | 0.958 | 1.01 | 0.94 | 0.732 | 0.901 | 0.786 | 0.823 | 0.778 | 0.885 | 0.759 | 0.879 | 0.829 | 0.846
